Data published in US8450525B2, “Histone deacetylase inhibitors” (Orchid Chemicals & Pharmaceuticals Limited, priority 2007, dated 2013).

How the values were obtained:
[1] = test system: HCT116 (colon) xenograft; assay type: in vivo; conditions: 100 mg/kg p.o. qdx21, HCT116 xenograft, vs vehicle treated control
Protocol: Experiments were carried out using 6-8 week old female […] SCID (Severe Combined Immune Deficient) mice. The mice were housed in Individually Ventilated Cages (IVC) at constant temperature (22±3° C.) and humidity (50±20%). They had free access to food and water. Tumors were obtained from ATCC, USA and maintained in vivo by subcutaneous (s.c.) passage of tumor fragments (app×30 mg) in healthy mice according to standard reported procedures. All the animal protocols were approved by the Institutional Animal Ethics Committee, ORLL, Chennai. Each experimental group included 6-8 mice bearing s.c. tumors. Tumors were implanted into the axillary region by puncturing using a Trocar, and tumor growth was monitored by measurement of tumor diameters with a Vernier caliper. Tumor Volume (TV) was calculated according to the following formula: TV (mm^3)=L×W^2×0.5,
Where L and W are the longest diameter and shortest diameter of the tumor, respectively. The compound treatment started when tumors were palpable (150-200 mm^3).
Test compound was administered by oral gavage in a volume of 5-10 ml/kg. […] Tumor size was measured twice every week and body weight was recorded daily prior to dosing.
Test compound (T) efficacy was assessed by calculating several parameters based on tumor volume (TV) with respect to untreated control (C). […]
Toxic effects of drug treatment were assessed by Body Weight Loss %. […]

[2] = target: T1, recombinant HDAC1 enzyme (Homo sapiens, UniProt Q13547); test: HDAC1 inhibitory activity, recombinant enzyme; assay type: biochemical; conditions: recombinant HDAC1 (BIOMOL); read-out: HDAC1 inhibition (IC50)
T1 construct: purchased BIOMOL, USA
Protocol: Assay was done in 96-well black microplate and total volume of the assay was 100 μL. Mouse liver enzyme (10 mg/ml) was diluted 1:6 with HDAC buffer. Enzyme cocktail was made of 10 μL of diluted enzyme and 30 μL of HDAC buffer. 40 μl of enzyme cocktail followed by 10 μL of test compound (1 μM and 10 μM) or buffer (control) was added to each well. The plate was pre-incubated at 37° C. for 5 minutes. The HDAC reaction was started by adding 50 μl of HDAC substrate Boc-Lys (Ac)-AMC (Bachem AG, Switzerland). The plate was incubated at 37° C. for 30 minutes. The reaction was stopped by adding 100 μL of Trypsin stop solution and incubating at 37° C. for 15-30 minutes. Measuring the fluorescence at excitation wavelength of 360 nm and emission wavelength of 460 nm monitored the release of AMC. Buffer alone and substrate alone served as blank. […] (Dennis Wegener et al, Anal. Biochem, 321, 2003, 202-208).
Since the benzamide type compounds are known to have potential for HDAC class 1 specificity, active compounds were tested for HDAC1 inhibitory activity. The assay was carried out, as previously described using recombinant HDAC1 enzyme (BIOMOL, USA) and following manufacturer's instructions.

[3] = test system: Acetylated histone (H3); test: Histone (H3) acetylation, sandwich ELISA in HCT116 cell lysate; assay type: cell-based; conditions: HCT116 cells, 4 hours, vs control
Protocol: (§1) The incubation lasted 18 hours for p21 induction. After incubation, cell lysates were prepared in cell lysis buffer by sonication on ice. The lysates were collected after centrifugation and subjected to ELISA test procedure. 100 μL of each diluted cell lysate in dilution buffer (1:1) was added to appropriate capture antibody coated microwells and incubated overnight at 4° C. After washing, 100 μL of detection antibody was added for 1 hour at 37° C. After second washing, 100 μL of HRP-linked secondary antibody was added for 30 minutes at 37° C. Finally, after appropriate washing, 100 μL of TMB substrate was added for 10 minutes at 37° C. followed by 100 μL, of stop solution. The absorbance of individual wells was read using a spectrophotometer at 450 nm (A450).

[4] = test system: p21; test: p21 induction, sandwich ELISA in HCT116 cell lysate; assay type: cell-based; conditions: HCT116 cells, 18 hours, vs control
Protocol: as §1

[5] = test system: HCT 116 (colon) cells; test: Anti-cancer screen, growth inhibition (MTT); assay type: cell-based; conditions: Homo sapiens, HCT-116 cells, 48 hours of incubation
Summary of the method: (§2)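 MTT added for 3 h at 37° C, formazan dissolved in DMSO and A570 read. A T0 plate was measured at compound addition.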

[6] = test system: U251 (glioma) cells; test: Anti-cancer screen, growth inhibition (MTT); assay type: cell-based; conditions: Homo sapiens, U-251 cells, 48 hours of incubation
Summary of the method: as §2

[7] = test system: NCI-H460 (lung) cells; test: Anti-cancer screen, growth inhibition (MTT); assay type: cell-based; conditions: Homo sapiens, 48 hours of incubation
Summary of the method: as §2

[8] = target: T2, HDAC (Mouse Liver Extract); test: HDAC inhibition assay using Boc-Lys(Ac)-AMC substrate, mouse liver enzyme; assay type: biochemical;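 on IC50: IC50 for inhibition of HDAC activity in mouse liver extract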
T2 construct: Mouse liver enzyme (10 mg/ml) was diluted 1:6 with HDAC buffer

[9] = test system: acetylated Tubulin; test: Tubulin acetylation, sandwich ELISA in HCT116 cell lysate; assay type: cell-based; conditions: HCT116 cells, 4 hours, vs control
Protocol: as §1

T1 sequence (Q13547 whole entry): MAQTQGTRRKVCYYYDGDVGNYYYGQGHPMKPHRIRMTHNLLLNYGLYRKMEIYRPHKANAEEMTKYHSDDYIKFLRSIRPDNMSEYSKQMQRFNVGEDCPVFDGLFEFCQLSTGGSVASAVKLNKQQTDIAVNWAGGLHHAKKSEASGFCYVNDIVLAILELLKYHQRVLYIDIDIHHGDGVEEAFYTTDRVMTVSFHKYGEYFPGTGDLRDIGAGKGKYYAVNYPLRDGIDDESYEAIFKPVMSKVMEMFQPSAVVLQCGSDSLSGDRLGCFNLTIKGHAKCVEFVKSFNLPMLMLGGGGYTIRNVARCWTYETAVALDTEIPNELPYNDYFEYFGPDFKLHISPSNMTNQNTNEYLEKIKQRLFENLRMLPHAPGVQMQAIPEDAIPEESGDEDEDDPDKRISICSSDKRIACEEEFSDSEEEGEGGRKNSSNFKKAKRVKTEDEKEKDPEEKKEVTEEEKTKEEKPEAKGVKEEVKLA

## Nc1ccccc1NC(=O)c1ccc(/C=C(/C(=O)NC2CC2)c2ccc(F)cc2)cc1 [Example 105, (E)-N-(2-Aminophenyl)-4-(3-(cyclopropylamino)-2-(4-fluorophenyl)-3-oxoprop-1-en-1-yl)benzamide]
[1]
  maximum Tumor Volume Inhibition (TVI): 39.4%
[2]
  IC50: 0.077 µM
[3]; 1 μM
  H3 Acetylation (Fold Increase): 1.24
[3]; 10 μM
  H3 Acetylation (Fold Increase): 6.67
[4]; 1 μM
  P21 Induction (Fold Increase): 1.05
[4]; 10 μM
  P21 Induction (Fold Increase): 2.50
[5]
  GI50: 1 µM
[6]
  GI50: 4.8 µM
[7]
  GI50: 0.9 µM
[8]
  IC50: 15.8 µM
[8]; 1 μM
  HDAC Inhibition % (1 μM): 46.0%
[8]; 10 μM
  HDAC Inhibition % (10 μM): 71.3%
[9]; 1 μM
  μ-Tubulin Acetylation (Fold Increase): 2.22
[9]; 10 μM
  μ-Tubulin Acetylation (Fold Increase): 8.98
